Columns and labels:
[1] = Body weight as general measure of toxicity in MX-1 tumor-bearing nude mice
Description: (§1) The animals were maintained on sterilized standard lab chow ad libitum and sterilized water ad libitum. The human MX-1 tumor cells (5×10^6) obtained from donor tumors were implanted subcutaneously in a thigh of female nude mice 8- to 10-weeks old. Beginning on day 7 post tumor cell implantation, the animals were treated with ALIMTA (100 mg/kg or 150 mg/kg) once daily on days 7 through 11 and 14 through 18 by intraperitoneal injection alone or along with folic acid (6 mg/kg or 60 mg/kg) and/or vitamin B12 (165 mg/kg) by intraperitoneal injection on the same schedule.
(§2) Tumor response was monitored by tumor volume measurements twice weekly over the course of the experiment. Toxicity was monitored by body weight measurements made at the same time as the tumor volume measurements. Tumor growth delay was the difference in days for the treated and the controls tumors to reach 1000 mm^3.
Body weight was used as a general measure of toxicity for each of the treatment regimens. The body weight loss pattern reflected the treatment regimens with weight decrease during the treatment times of days 7 through 11 and 14 through 18 with some weight recovery during the intervening two days. The weight loss due to ALITMA was dose dependent but overall minor (3%).

[2] = grade 3/4 toxic events, N = 246, not supplemented
Description: One to two weeks prior to administration of ALIMTA urine is collected and blood is drawn from a human subject; and vitamin metabolite levels, methylmalonic acid and homocysteine, are determined. Homocysteine levels are determined in blood by a fluorescent polarization immunoassay kit manufactured by Abbot Laboratories. Methylmalonic acid levels are determined by urine levels using a 24 hour urine collection kit available from Biolab Medical Unit (a United Kingdom company). Additionally urine and blood may be collected one week prior to administration of ALIMTA (after at least 5 days of folic acid supplementation and at least 1 week vitamin B12 supplementation), and up to 4 days prior to every cycle.
For purposes of this study, patients should take oral folic acid daily beginning approximately 1 to 3 weeks before treatment with ALIMTA plus cisplatin or cisplatin alone and continuing daily until discontinuation from study therapy.
Vitamin B12 will be obtained and administered as a 1000 μg intramuscular injection. A vitamin B12 injection must be administered approximately 1 to 3 weeks before treatment with ALIMTA and should be repeated approximately every 9 weeks until the patient discontinues from study therapy.
Folic acid supplementation, 350-600 μg or equivalent should be taken orally daily beginning approximately 1 to 3 weeks prior to the first dose of MTA plus cisplatin and continue daily until the patient discontinues from study therapy. A vitamin B12 injection, 1000 μg, must be given intramuscularly approximately 1 to 3 weeks prior to the first dose of ALIMTA and should be repeated approximately every 9 weeks until the patient discontinues from study therapy.
The data to be compared are: • 1) Patient numbers and baseline demographic data for those supplemented from baseline. • 2) Homocysteine and methylmalonic acid levels, levels at baseline, prior to first dose, prior to second dose, and prior to each therapy cycle depending of the type of cancer under study. • 3) Grade 3 and 4 hematologic toxicity in these fully supplemented patients. • 4) Grade 3 and 4 nonhematologic toxicity in these fully supplemented patients.
Cyanocobalamin is used as the methylmalonic acid lowering agent in these studies.

[3] = tested on: human MX-1 breast carcinoma; assay: Tumor growth delay in human MX-1 breast carcinoma xenograft in female nude mice; type: in vivo
Description: To assess the effect of a methylmalonic acid lowering agent, alone or in combination with folic acid on the antitumor efficacy of an antifolate in a human tumor xenograft model, female nude mice bearing human MX-1 breast carcinoma were treated with ALIMTA alone or along with super-physiologic doses of folic acid or vitamin B12 (cobalamin).
as §1, §2

[4] = Clinical response to chemotherapy in chemonaive patients; type: in vivo, human; conditions: responders out of group size
From the text: Additionally, sixty-two chemonaive patients requiring chemotherapeutic treatment were divided into two groups.

Nc1nc2[nH]cc(CCc3ccc(C(=O)N[C@@H](CCC(=O)O)C(=O)O)cc3)c2c(=O)[nH]1 [ALIMTA, pemetrexed disodium]
Body weight loss ([1]; mouse, in vivo): 3% | Percent of occurrences prior to B12/folic acid treatment: Diarrhea [2]: 6% | Percent of occurrences prior to B12/folic acid treatment: Hematologic Toxicity/Non-Hematologic Toxicity [2]: 37% | Percent of occurrences prior to B12/folic acid treatment: Mucositis [2]: 5% | Percent of occurrences prior to B12/folic acid treatment: Neutropenia [2]: 32% | Percent of occurrences prior to B12/folic acid treatment: Neutropenia and Diarrhea [2]: 3% | Percent of occurrences prior to B12/folic acid treatment: Neutropenia and Infection [2]: 2% | Percent of occurrences prior to B12/folic acid treatment: Neutropenia and Mucositis [2]: 3% | Tumor growth delay ([3]; ALIMTA 100 mg/kg ip once daily days 7-11 and 14-18, alone, time to reach 1000 mm^3 vs controls): 17 days | Tumor growth delay ([3]; ALIMTA 150 mg/kg ip once daily days 7-11 and 14-18, alone): 21 days | Patients who responded to the chemotherapy [4]: 1 out of 17

Nc1nc2ncc(CNc3ccc(C(=O)N[C@@H](CCC(=O)O)C(=O)O)cc3)nc2c(=O)[nH]1 [Folic acid, folic acid]
Tumor growth delay ([3]; folic acid 6 mg/kg ip alone, same schedule): 7 days | Tumor growth delay ([3]; folic acid 60 mg/kg ip alone, same schedule): 12 days

vitamin B12
Body weight change ([1]; vitamin B12 administration): did not prevent weight gain | Tumor growth delay ([3]; vitamin B12 165 mg/kg ip alone, same schedule): 12 days

From patent US7772209B2, “Antifolate combination therapies” (Eli Lilly and Company, priority 2000, dated 2010)
